# Measurements reported in patent US8192962B2, “Processes for detecting toxic substances” (Daikin Industries, Ltd., priority 2001, dated 2012).
# Tested on: Energy system protein genes
# Assay: DNA chip mRNA expression in yeast, energy system protein genes (Table 4)
# Format: cell-based, Saccharomyces cerevisiae S288C
# In short: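 S. cerevisiae S288C grown at 25° C in YPD were exposed in log phase for two hours to one toxic chemical at a growth-inhibiting, non-lethal concentration; untreated cells served as control. Poly(A) mRNA was reverse-transcribed with Cy3/Cy5-dUTP and hybridized to a whole-genome yeast DNA chip at 65° C for over 12 hours; values are fluorescence ratios versus untreated.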
substance,measurement,setting,value
manganese ethylenebis(dithiocarbamate) [(8)],The level of expressed mRNA in the presence of chemical substance/The level of expressed mRNA in the absence of chemical substance,yeast gene YAL060W,0.9
same,The level of expressed mRNA in the presence of chemical substance/The level of expressed mRNA in the absence of chemical substance,"yeast gene YBL058W, cells incubated two hours with the chemical substance",1.2
same,The level of expressed mRNA in the presence of chemical substance/The level of expressed mRNA in the absence of chemical substance,"yeast gene YBL099W, cells incubated two hours with the chemical substance",0.8
same,The level of expressed mRNA in the presence of chemical substance/The level of expressed mRNA in the absence of chemical substance,"yeast gene YBR001C, cells incubated two hours with the chemical substance",1.3
same,The level of expressed mRNA in the presence of chemical substance/The level of expressed mRNA in the absence of chemical substance,"yeast gene YBR185C, cells incubated two hours with the chemical substance",1.1
same,The level of expressed mRNA in the presence of chemical substance/The level of expressed mRNA in the absence of chemical substance,"yeast gene YBR221C, cells incubated two hours with the chemical substance",0.8
same,The level of expressed mRNA in the presence of chemical substance/The level of expressed mRNA in the absence of chemical substance,yeast gene YCL040W,0.7
same,The level of expressed mRNA in the presence of chemical substance/The level of expressed mRNA in the absence of chemical substance,yeast gene YCR012W,0.8
same,The level of expressed mRNA in the presence of chemical substance/The level of expressed mRNA in the absence of chemical substance,"yeast gene YCR046C, cells incubated two hours with the chemical substance",0.9
same,The level of expressed mRNA in the presence of chemical substance/The level of expressed mRNA in the absence of chemical substance,"yeast gene YCR105W, cells incubated two hours with the chemical substance",1.4
same,The level of expressed mRNA in the presence of chemical substance/The level of expressed mRNA in the absence of chemical substance,yeast gene YDL021W,2.7
same,The level of expressed mRNA in the presence of chemical substance/The level of expressed mRNA in the absence of chemical substance,"yeast gene YDL067C, cells incubated two hours with the chemical substance",1.1
same,The level of expressed mRNA in the presence of chemical substance/The level of expressed mRNA in the absence of chemical substance,"yeast gene YDL078C, cells incubated two hours with the chemical substance",1.0
same,The level of expressed mRNA in the presence of chemical substance/The level of expressed mRNA in the absence of chemical substance,"yeast gene YDL107W, cells incubated two hours with the chemical substance",1.8
same,The level of expressed mRNA in the presence of chemical substance/The level of expressed mRNA in the absence of chemical substance,yeast gene YDL174C,0.8
same,The level of expressed mRNA in the presence of chemical substance/The level of expressed mRNA in the absence of chemical substance,"yeast gene YDL181W, cells incubated two hours with the chemical substance",0.6
same,The level of expressed mRNA in the presence of chemical substance/The level of expressed mRNA in the absence of chemical substance,yeast gene YDR001C,0.9
same,The level of expressed mRNA in the presence of chemical substance/The level of expressed mRNA in the absence of chemical substance,"yeast gene YDR050C, cells incubated two hours with the chemical substance",1.3
same,The level of expressed mRNA in the presence of chemical substance/The level of expressed mRNA in the absence of chemical substance,"yeast gene YDR079W, cells incubated two hours with the chemical substance",2.6
same,The level of expressed mRNA in the presence of chemical substance/The level of expressed mRNA in the absence of chemical substance,"yeast gene YDR178W, cells incubated two hours with the chemical substance",0.9
same,The level of expressed mRNA in the presence of chemical substance/The level of expressed mRNA in the absence of chemical substance,yeast gene YDR231C,1.3
same,The level of expressed mRNA in the presence of chemical substance/The level of expressed mRNA in the absence of chemical substance,"yeast gene YDR298C, cells incubated two hours with the chemical substance",1.2
same,The level of expressed mRNA in the presence of chemical substance/The level of expressed mRNA in the absence of chemical substance,"yeast gene YDR377W, cells incubated two hours with the chemical substance",1.3
same,The level of expressed mRNA in the presence of chemical substance/The level of expressed mRNA in the absence of chemical substance,"yeast gene YDR529C, cells incubated two hours with the chemical substance",1.3
same,The level of expressed mRNA in the presence of chemical substance/The level of expressed mRNA in the absence of chemical substance,"yeast gene YEL024W, cells incubated two hours with the chemical substance",1.0
same,The level of expressed mRNA in the presence of chemical substance/The level of expressed mRNA in the absence of chemical substance,"yeast gene YEL039C, cells incubated two hours with the chemical substance",1.1
same,The level of expressed mRNA in the presence of chemical substance/The level of expressed mRNA in the absence of chemical substance,yeast gene YER178W,0.8
same,The level of expressed mRNA in the presence of chemical substance/The level of expressed mRNA in the absence of chemical substance,yeast gene YFL057C,18.0
same,The level of expressed mRNA in the presence of chemical substance/The level of expressed mRNA in the absence of chemical substance,yeast gene YFR053C,2.8
same,The level of expressed mRNA in the presence of chemical substance/The level of expressed mRNA in the absence of chemical substance,"yeast gene YGL018C, cells incubated two hours with the chemical substance",0.8
same,The level of expressed mRNA in the presence of chemical substance/The level of expressed mRNA in the absence of chemical substance,yeast gene YGL062W,0.8
same,The level of expressed mRNA in the presence of chemical substance/The level of expressed mRNA in the absence of chemical substance,"yeast gene YGL187C, cells incubated two hours with the chemical substance",0.7
same,The level of expressed mRNA in the presence of chemical substance/The level of expressed mRNA in the absence of chemical substance,"yeast gene YGL191W, cells incubated two hours with the chemical substance",1.6
same,The level of expressed mRNA in the presence of chemical substance/The level of expressed mRNA in the absence of chemical substance,"yeast gene YGL205W, cells incubated two hours with the chemical substance",1.2
same,The level of expressed mRNA in the presence of chemical substance/The level of expressed mRNA in the absence of chemical substance,"yeast gene YGL256W, cells incubated two hours with the chemical substance",1.0
same,The level of expressed mRNA in the presence of chemical substance/The level of expressed mRNA in the absence of chemical substance,yeast gene YGR043C,2.6
same,The level of expressed mRNA in the presence of chemical substance/The level of expressed mRNA in the absence of chemical substance,"yeast gene YGR062C, cells incubated two hours with the chemical substance, 25° C., YPD medium",0.8
same,The level of expressed mRNA in the presence of chemical substance/The level of expressed mRNA in the absence of chemical substance,"yeast gene YGR087C, cells incubated two hours with the chemical substance",0.8
same,The level of expressed mRNA in the presence of chemical substance/The level of expressed mRNA in the absence of chemical substance,"yeast gene YGR174C, cells incubated two hours with the chemical substance",1.6
same,The level of expressed mRNA in the presence of chemical substance/The level of expressed mRNA in the absence of chemical substance,yeast gene YGR192C,1.1
same,The level of expressed mRNA in the presence of chemical substance/The level of expressed mRNA in the absence of chemical substance,yeast gene YGR244C,1.8
same,The level of expressed mRNA in the presence of chemical substance/The level of expressed mRNA in the absence of chemical substance,yeast gene YGR254W,1.4
same,The level of expressed mRNA in the presence of chemical substance/The level of expressed mRNA in the absence of chemical substance,yeast gene YHR179W,3.3
same,The level of expressed mRNA in the presence of chemical substance/The level of expressed mRNA in the absence of chemical substance,yeast gene YIL160C,1.2
same,The level of expressed mRNA in the presence of chemical substance/The level of expressed mRNA in the absence of chemical substance,"yeast gene YIR031C, cells incubated two hours with the chemical substance",1.0
same,The level of expressed mRNA in the presence of chemical substance/The level of expressed mRNA in the absence of chemical substance,yeast gene YJL052W,1.5
same,The level of expressed mRNA in the presence of chemical substance/The level of expressed mRNA in the absence of chemical substance,"yeast gene YJL121C, cells incubated two hours with the chemical substance",1.0
same,The level of expressed mRNA in the presence of chemical substance/The level of expressed mRNA in the absence of chemical substance,"yeast gene YJL166W, cells incubated two hours with the chemical substance",1.4
same,The level of expressed mRNA in the presence of chemical substance/The level of expressed mRNA in the absence of chemical substance,"yeast gene YJL216C, cells incubated two hours with the chemical substance",1.9
same,The level of expressed mRNA in the presence of chemical substance/The level of expressed mRNA in the absence of chemical substance,yeast gene YJR009C,1.1
